The structures appear in SMILES notation.

The target of this experiment is T1, P2X purinoceptor 7 (Homo sapiens, UniProt Q99572).
T1 sequence (Q99572 whole entry): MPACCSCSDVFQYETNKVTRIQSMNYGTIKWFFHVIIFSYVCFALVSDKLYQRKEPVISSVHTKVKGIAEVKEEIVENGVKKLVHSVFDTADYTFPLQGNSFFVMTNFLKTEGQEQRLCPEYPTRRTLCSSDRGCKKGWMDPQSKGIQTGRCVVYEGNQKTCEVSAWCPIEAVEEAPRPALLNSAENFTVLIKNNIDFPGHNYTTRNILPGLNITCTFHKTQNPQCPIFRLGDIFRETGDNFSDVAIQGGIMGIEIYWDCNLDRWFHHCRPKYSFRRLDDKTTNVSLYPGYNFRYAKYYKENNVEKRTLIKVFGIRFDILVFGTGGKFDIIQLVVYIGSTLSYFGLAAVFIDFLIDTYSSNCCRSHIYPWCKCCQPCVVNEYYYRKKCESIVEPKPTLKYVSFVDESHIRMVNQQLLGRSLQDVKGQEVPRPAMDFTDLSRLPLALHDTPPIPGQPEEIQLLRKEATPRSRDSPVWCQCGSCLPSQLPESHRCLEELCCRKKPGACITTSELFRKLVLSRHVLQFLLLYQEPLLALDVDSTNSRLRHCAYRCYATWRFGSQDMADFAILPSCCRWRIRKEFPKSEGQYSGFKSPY
Nature of the experiment: SUPPLEMENTARY: Inhibition of human P2X7 receptor assessed as inhibition of ethidium bromide accumulation. Same assay as CHEMBL1103860.
As a reminder, the IC50 is the point on the concentration scale where inhibition reaches its midpoint. Consider `Cc1cccc(C(=O)N2CCN(c3ccc(F)cc3Cl)C(=O)C2)c1Cl`, for which the IC50 is 31.6 nM.
The result for `Cc1cccc(N2C[C@@H](C(=O)NCc3ccc(F)cc3Cl)N(C)C2=O)n1` reads 398 nM; that for `Cc1ccc(N2C[C@@H](C(=O)NCc3ccc(F)cc3Cl)N(C)C2=O)cn1`, 63.1 nM.
With `Cc1ccc(C(F)(F)F)cc1N1CCN(Cc2ccc(F)cc2Cl)C(=O)C1=O`, the IC50 is 50.1 nM.
The same measure for `Cn1nccc1-c1nnc2n1CCN(C(=O)c1cccc(C(F)(F)F)c1Cl)C2`: 15.8 nM; for `Cc1ccc(N2CCN(Cc3ccc(F)cc3Cl)C(=O)C2=O)cc1C`: 501 nM.
The same measure for `CCN1CCN(C(=O)c2cccc(Cl)c2Cl)CC1=O`: 200 nM; for `O=C(c1cccc(Cl)c1Cl)N1CCn2c(nnc2-c2cscn2)C1`: 1 nM.
The same measure for `O=C(c1cccc(C(F)(F)F)c1Cl)N1CCN(c2ccccc2Cl)C(=O)C1`: 5.01 nM; for `Cc1nn(CCNCCO)c(C)c1CC(=O)NCc1ccc(F)cc1Cl`: 100 nM.
Take `COc1ccccc1-c1nnc2n1CCN(C(=O)c1ccc(F)cc1Cl)C2`: the IC50 was 158 nM.
The result for `Cc1nn(Cc2ccccc2N(C)C)c(C)c1CC(=O)NCc1ccc(F)cc1Cl` reads 251 nM.
The result for `CN1C(=O)N(c2cccnc2C#N)C[C@H]1C(=O)NCc1ccc(Cl)cc1Cl` reads 31.6 nM.
`Cc1nn(CCN2CCOCC2)c(C)c1CC(=O)NCc1cccc(Cl)c1C`: the concentration for half-maximal inhibition (IC50) is 126 nM.
The same measure for `Cc1ccc(N2C[C@@H](C(=O)NCc3ccc(Cl)cc3Cl)N(C)C2=O)c(C)n1`: 15.8 nM; for `O=C1C(=O)N(c2cc(F)ccc2F)CCN1Cc1ccc(F)cc1Cl`: 158 nM; for `Cc1ccc(N2CCOCC2)cc1N1CCN(C(=O)c2cccc(C(F)(F)F)c2Cl)CC1=O`: 15.8 nM.
The result for `O=C(c1ccc(Cl)cc1Cl)N1CCn2c(nnc2-c2cnccn2)C1` reads 3.16 nM; that for `O=C(NCc1cccc(C(F)(F)F)c1Cl)[C@H]1CCC(=O)N1Cc1cccnc1`, 50.1 nM; that for `Cc1ccccc1CN1CCN(c2cccc(Cl)c2Cl)C(=O)C1=O`, 251 nM.
Take `Cc1cc(-n2nc(C)c(CC(=O)NCc3ccc(F)cc3Cl)c2C)nc(C)n1`: the IC50 is 200 nM.
The result for `COc1ccc(C)c(N2CCN(Cc3ccc(F)cc3Cl)C(=O)C2=O)c1` reads 10 nM; that for `Cc1nn(CC(C)(C)O)c(C)c1CC(=O)NCc1ccc(F)cc1Cl`, 316 nM.
`N#Cc1cc(F)ccc1N1CCN(C(=O)c2cccc(C(F)(F)F)c2Cl)CC1=O`: the IC50 is 3.98 nM.
`O=C(c1ccc(F)cc1Cl)N1CCn2c(nc(C(F)(F)F)c2Br)C1`: the IC50 is 31.6 nM.
The result for `O=C1C(=O)N(c2cccc3[nH]ccc23)CCN1Cc1ccc(F)cc1Cl` reads 12.6 nM; that for `Cc1cc(F)cc(C)c1N1CCN(Cc2ccc(F)c(F)c2F)C(=O)C1=O`, 316 nM.
The same measure for `Cc1ccccc1N1CCN(Cc2ccc(F)cc2C(F)(F)F)C(=O)C1=O`: 126 nM; for `Cc1ccccc1N1CCN(Cc2cccc(C(F)(F)F)c2Cl)C(=O)C1=O`: 39.8 nM; for `Cc1cc(F)ccc1N1CCN(C(=O)c2cccc(Cl)c2Cl)CC1=O`: 50.1 nM.
The result for `COc1ccc(N2C[C@@H](C(=O)NCc3cccc(C(F)(F)F)c3Cl)N(C)C2=O)cn1` reads 7.94 nM.
For the compound `O=C(c1cccc(C(F)(F)F)c1Cl)N1CCn2c(nc(Cl)c2Cl)C1`, the IC50 was 3.16 nM.
As for `Cc1cc(C)cc(N2CCN(Cc3ccc(F)cc3Cl)C(=O)C2=O)c1`, the IC50 is 1000 nM.
The same measure for `Cc1c(F)cccc1N1CCN(Cc2ccc(F)cc2Cl)C(=O)C1=O`: 100 nM.
As to `CN1C(=O)N(c2cc(C(F)(F)F)ncn2)C[C@H]1C(=O)NCc1ccc(Cl)cc1Cl`, the IC50 is 31.6 nM.
As to `Cc1cc(N2C[C@@H](C(=O)NCc3ccc(F)c(F)c3Cl)N(C)C2=O)ccn1`, the IC50 was 31.6 nM.
The same measure for `CCc1nnc2n1CCN(C(=O)c1cccc(C(F)(F)F)c1Cl)C2`: 31.6 nM.
The same measure for `Cc1c(Cl)cccc1N1CCN(Cc2ccc(F)cc2Cl)C(=O)C1=O`: 12.6 nM; for `CN1C[C@@H](C(=O)NCc2ccc(F)cc2C(F)(F)F)N(C)C1=O`: 50.1 nM; for `CCN1C(=O)OC[C@@H]1C(=O)NCc1ccc(F)cc1Cl`: 316 nM.
On to `Cc1cccc(C(=O)N2CCN(C)C(=O)C2)c1Cl`, for which the IC50 is 631 nM.
On to `CC(C)Oc1cc(F)ccc1N1CCN(C(=O)c2cccc(Cl)c2Cl)CC1=O`, for which the IC50 is 15.8 nM.
`O=C1C(=O)N(c2cccc(Cl)c2Cl)CCN1Cc1ccc(F)cc1Cl`: the IC50 was 100 nM.
For `O=C(NCc1cccc(C(F)(F)F)c1Cl)[C@H]1CCC(=O)N1C1CCCC1`, the IC50 is 100 nM.
The same measure for `Cc1cccc(C)c1N1CCN(Cc2ccc(F)c(F)c2F)C(=O)C1=O`: 39.8 nM; for `CCN1C[C@@H](C(=O)NCc2ccc(Cl)cc2Cl)N(C)C1=O`: 3.16 nM.
As for `Cc1nn(CC(C)(C)O)c(C)c1CC(=O)NCc1cccc(Cl)c1C`, the IC50 was 158 nM.
The result for `O=C(c1c(Cl)cc(Cl)cc1Cl)N1CCN(c2cc(N3CCOCC3)ccc2Cl)C(=O)C1` reads 10 nM; that for `Cc1nn(C2CCN(C)CC2)c(C)c1CC(=O)NCc1ccc(F)cc1Cl`, 126 nM; that for `O=C(c1cccc(C(F)(F)F)c1Cl)N1CCn2c(-c3ccc(F)cc3)cnc2C1`, 12.6 nM.
The result for `Cc1c(N2CCOCC2)cccc1N1CCN(Cc2ccc(F)cc2Cl)C(=O)C1=O` reads 31.6 nM; that for `O=C1CN(C(=O)c2cccc(C(F)(F)F)c2Cl)CCN1Cc1cccnc1`, 398 nM; that for `CC(C)N1C(=O)CC[C@H]1C(=O)NCc1ccc(Cl)cc1Cl`, 7.94 nM.
Regarding `O=C(c1ccccc1Cl)N1CCn2c(nnc2-c2ccncn2)C1`, the IC50 was 158 nM.
With `Cc1nn(-c2cccc(Cl)c2)c(C)c1CC(=O)NCc1ccc(F)cc1Cl`, the IC50 is 316 nM.
As to `O=C(c1ccc(F)cc1Cl)N1CCn2c(nnc2-c2cccc(F)c2)C1`, the IC50 was 15.8 nM.
The result for `Cc1nn(CC(=O)O)c(C)c1CC(=O)NCc1ccc(F)cc1Cl` reads 1260 nM; that for `Cc1ncccc1N1CCN(Cc2ccc(F)cc2Cl)C(=O)C1=O`, 631 nM; that for `Cc1nn(-c2ccccc2)c(C)c1CC(=O)NCc1ccc(F)cc1C(F)(F)F`, 158 nM.
The same measure for `O=C(c1c(Cl)cccc1Cl)N1CCN(c2ccc(F)cc2Cl)C(=O)C1`: 63.1 nM.
For the compound `CN1C[C@@H](C(=O)NCc2ccc(F)c(C(F)(F)F)c2)N(C)C1=O`, the IC50 was 50.1 nM.
Take `O=C(NCc1ccc(Cl)cc1Cl)C1CC(=O)N(Cc2ccccc2)C1` (stereo not drawn): the IC50 is 158 nM.
The result for `CN1C(=O)NC[C@H]1C(=O)NCc1ccc(F)c(F)c1Cl` reads 20 nM.
Consider `CN1C(=O)N(c2cncn2C)C[C@H]1C(=O)NCc1ccc(Cl)cc1Cl`, for which the IC50 was 10 nM.
The result for `Cc1ccc(N2C[C@@H](C(=O)NCc3cccc(C(F)(F)F)c3Cl)N(C)C2=O)c(C)n1` reads 7.94 nM; that for `O=C(c1ccc(F)c(Cl)c1)N1CCn2c(nnc2-c2cnccn2)C1`, 20 nM; that for `CN1C[C@@H](C(=O)NCc2ccc(F)c(F)c2F)N(C)C1=O`, 31.6 nM.
As to `O=C(c1ccc(F)cc1Cl)N1CCn2c(nnc2-c2cccc3cccnc23)C1`, the 50% inhibitory concentration (IC50) was 251 nM.
The result for `Cc1c(Cl)cccc1CNC(=O)[C@@H]1CCCS(=O)(=O)N1C(C)C` reads 631 nM.
The same measure for `O=C1C(=O)N(c2cccc(Cl)c2Cl)CCN1Cc1cccc(Cl)c1`: 501 nM; for `CC1=CC(=O)N(C2CC2)C1C(=O)NCc1ccc(Cl)cc1Cl` (stereo not drawn): 631 nM.
The same measure for `Cc1cccc(N2CCN(Cc3ccc(F)cc3Cl)C(=O)C2=O)c1N1CCOCC1`: 50.1 nM; for `CN1C(=O)CC[C@@H]1C(=O)NCc1cccc(Cl)c1Cl`: 63.1 nM.
As for `Cc1cnccc1N1CCN(Cc2ccc(F)cc2Cl)C(=O)C1=O`, the IC50 was 501 nM.
The same measure for `O=C(c1ccc(F)c(Cl)c1Cl)N1CCn2c(nnc2-c2cnccn2)C1`: 2 nM; for `O=C1C(=O)N(c2cccc(Cl)c2Cl)CCN1Cc1ccccc1Cl`: 200 nM; for `Cc1nn(-c2nccs2)c(C)c1CC(=O)NCc1ccc(F)cc1Cl`: 316 nM.
As for `CN1C(=O)N(CC(F)(F)F)C[C@H]1C(=O)NCc1ccc(Cl)cc1Cl`, the IC50 is 2 nM.
Regarding `Cc1cn2c(n1)CN(C(=O)c1cccc(C(F)(F)F)c1Cl)CC2`, the IC50 is 126 nM.
In the case of `Cc1cc(Cl)ccc1CNC(=O)[C@@H]1CN(C)C(=O)N1C`, the IC50 was 7.94 nM.
The same measure for `CC(C)c1ccnc(N2C[C@@H](C(=O)NCc3ccc(Cl)cc3Cl)N(C)C2=O)n1`: 158 nM; for `CNc1nnc2n1CCN(C(=O)c1cccc(C(F)(F)F)c1Cl)C2`: 251 nM; for `CCN1C(=O)CC[C@@H]1C(=O)NCc1ccc(Cl)c(C(F)(F)F)c1`: 316 nM.
The same measure for `O=C(c1cccc(Cl)c1Cl)N1CCn2cc(-c3ccccc3)nc2C1`: 631 nM; for `Cc1cccc(N2CCN(Cc3ccc(F)cc3Cl)C(=O)C2=O)c1`: 158 nM; for `CCN1C(=O)CC[C@H]1C(=O)NCc1ccc(F)c(F)c1F`: 158 nM.
The result for `Cc1cccc(Cl)c1CNC(=O)Cc1c(C)nn(-c2ccccc2)c1C` reads 39.8 nM.
As to `O=C(Cc1cnn(CCO)c1C(F)(F)F)NCc1ccc(F)cc1Cl`, the IC50 was 200 nM.

(Values after ChEMBL document CHEMBL2218064, “Structure-activity relationship data for chemical series of antagonists of the P2X7 receptor (Supplementary Bioactivity Data for publication CHEMBL1157114)”.)
